For one experiment, the system named is SK-BR-3 cells. The experiment can be described thus: Measurement of cell growth inhibition (crystal violet staining method). The settings on record: Homo sapiens. Format: cell-based.
For experiment [1], the target named is human HSP90 alpha protein (HSP90 N-terminal protein, amino acids 2-236) (Homo sapiens (Human), UniProt P07900). The experiment can be described thus: Measurement of HSP90-binding activity (AlphaScreen competitive assay, biotin-labeled geldanamycin). The settings on record: read-out: HSP-binding activity IC50.
The mark [2] stands for this setting: breast cancer SK-BR-3 cells, 72 hr culture with test substance.
[3] abbreviates: concentration inhibiting binding of biotin-labeled geldanamycin (40 nM) to purified HSP90 to 50% of control.

Like-named read-outs stand apart in the source and are kept apart here.

`CC(C)Nc1cc(-n2nc(C(F)(F)F)c3c(-n4cnc(-c5cnn(C)c5)c4)ccnc32)ccc1C(N)=O` [Example 160, 2-(Isopropylamino)-4-{4-(4-(1-methyl-1H-pyrazol-4-yl)-1H-imidazol-1-yl)-3-(trifluoromethyl)-1H-pyrazolo[3,4-b]pyridin-1-yl}benzamide]: the concentration for half-maximal inhibition (IC50) in the experiment with SK-BR-3 cells (setting [2]) turned out to be 20 nM; in experiment [1] (setting [3]), 160 nM.

With `CC(C)c1nn(-c2ccc(C(N)=O)cc2Cl)c2nccc(-c3cnc4ccccc4c3)c12` [Example 38, 3-Chloro-4-{3-isopropyl-4-(quinolin-3-yl)-1H-pyrazolo[3,4-b]pyridin-1-yl}benzamide], the half-inhibitory concentration (IC50) in the experiment on SK-BR-3 cells (setting [2]) amounted to 670 nM; in experiment [1] (setting [3]), 510 nM.

`CCNc1cc(-n2nc(C(C)C)c3c(-n4cnc(-c5cnn(CC)c5)c4)ccnc32)ccc1C(N)=O` [Example 146, 4-{4-(4-(1-Ethyl-1H-pyrazol-4-yl)-1H-imidazol-1-yl)-3-isopropyl-1H-pyrazolo[3,4-b]pyridin-1-yl}-2-(ethylamino)benzamide]: the figures for the IC50 (with SK-BR-3 cells (setting [2]); in experiment [1] (setting [3])) were 210 nM and 770 nM, respectively.

Consider `CCc1c(-n2nc(C(C)C)c3c(-n4cnc(-c5cnn(C)c5)c4)ccnc32)ccc(C(N)=O)c1F` [Example 131, 3-Ethyl-2-fluoro-4-{3-isopropyl-4-(4-(1-methyl-1H-pyrazol-4-yl)-1H-imidazol-1-yl)-1H-pyrazolo[3,4-b]pyridin-1-yl}benzamide], for which the results for the IC50 (in the experiment on SK-BR-3 cells (setting [2]); in experiment [1] (setting [3])) were 920 nM and 700 nM, respectively.

In the case of `CC(C)c1nn(-c2ccc(C(N)=O)c(N[C@H]3CC[C@H](O)CC3)c2)c2nccc(-n3ccnc3)c12` [Example 36, 4-{4-(1H-Imidazol-1-yl)-3-isopropyl-1H-pyrazolo[3,4-b]pyridin-1-yl}-2-(trans-4-hydroxycyclohexylamino)benzamide], the IC50 worked out at 3210 nM in the experiment on SK-BR-3 cells (setting [2]) and 1880 nM in experiment [1] (setting [3]).

Turning to `CCNc1cc(C(N)=O)ccc1-n1nc(C(F)(F)F)c2c(-n3cnc(-c4cnn(C(C)C)c4)c3)ccnc21` [Example 187, 3-(Ethylamino)-4-{4-(4-(1-isopropyl-1H-pyrazol-4-yl)-1H-imidazol-1-yl)-3-(trifluoromethyl)-1H-pyrazolo[3,4-b]pyridin-1-yl}benzamide], the IC50 with SK-BR-3 cells (setting [2]) came to 710 nM; in experiment [1] (setting [3]) it was 620 nM.

With `CC(C)c1nn(-c2ccc(C(N)=O)cc2CN2CCOCC2)c2nccc(-n3cnc(-c4cnn(C)c4)c3)c12` [Example 127, 4-{3-Isopropyl-4-(4-(1-methyl-1H-pyrazol-4-yl)-1H-imidazol-1-yl)-1H-pyrazolo[3,4-b]pyridin-1-yl}-3-(morpholinomethyl)benzamide], the IC50 was determined as 1560 nM in the experiment on SK-BR-3 cells (setting [2]) and 230 nM in experiment [1] (setting [3]).

As for `CC(C)c1nn(-c2ccc(C(N)=O)cc2C2CC2)c2nccc(-n3cnc(-c4cccnc4)c3)c12` [Example 138, 3-Cyclopropyl-4-{3-isopropyl-4-(4-(pyridin-3-yl)-1H-imidazol-1-yl)-1H-pyrazolo[3,4-b]pyridin-1-yl}benzamide], the IC50 worked out at 530 nM in the experiment on SK-BR-3 cells (setting [2]) and 190 nM in experiment [1] (setting [3]).

On to `CC(C)c1nn(-c2ccc(C(N)=O)c(NC3CCC(O)CC3)c2)c2nccc(-n3cnc(-c4ccco4)c3)c12` (stereo not shown) [Example 88, 4-{4-(4-(Furan-2-yl)-1H-imidazol-1-yl)-3-isopropyl-1H-pyrazolo[3,4-b]pyridin-1-yl}-2-(4-hydroxycyclohexylamino)benzamide], for which the IC50 in the experiment on SK-BR-3 cells (setting [2]) came out at 230 nM; in experiment [1] (setting [3]), 680 nM.

Turning to `CC(C)c1nn(-c2ccc(C(N)=O)c(N[C@H]3CC[C@H](O)CC3)c2)c2cncc(-c3cnc4ccccc4c3)c12` [Example 5, 2-(Trans-4-hydroxycyclohexylamino)-4-{3-isopropyl-4-(quinolin-3-yl)-1H-pyrazolo[3,4-c]pyridin-1-yl}benzamide], the IC50 in the experiment with SK-BR-3 cells (SK-BR-3, 72 h) is 110 nM; in experiment [1], 160 nM.

In the case of `Cc1cn(-c2ccc(C(N)=O)c(NC3CCC(O)CC3)c2)c2nccc(-n3cnc(-c4ccccc4)c3)c12` (stereo not shown) [Example 97, 2-(4-Hydroxycyclohexylamino)-4-{3-methyl-4-(4-phenyl-1H-imidazol-1-yl)-1H-pyrrolo[2,3-b]pyridin-1-yl}benzamide], the IC50 with SK-BR-3 cells (setting [2]) stood at 70 nM; in experiment [1] (setting [3]), 240 nM.

These data come from US8779142B2, “Azabicyclo compound and salt thereof” (Taiho Pharmaceutical Co., Ltd., priority 2009, dated 2014).
